Experiments:
[1] = Half life in Sprague-Dawley rat at 2.5 mg/kg, po; type: ADME, organism-based; set-up: dose 2.5 mg/kg, route oral; details: in vivo
[2] = Mean residence time in Sprague-Dawley rat at 2.5 mg/kg, po; type: ADME, organism-based; set-up: dose 2.5 mg/kg, route oral; details: in vivo
[3] = target: T1, Ephrin type-B receptor 2 (Homo sapiens, UniProt P29323); assay: Inhibition of recombinant EphB2 (unknown origin) by cell-free assay
T1 sequence (P29323 whole entry): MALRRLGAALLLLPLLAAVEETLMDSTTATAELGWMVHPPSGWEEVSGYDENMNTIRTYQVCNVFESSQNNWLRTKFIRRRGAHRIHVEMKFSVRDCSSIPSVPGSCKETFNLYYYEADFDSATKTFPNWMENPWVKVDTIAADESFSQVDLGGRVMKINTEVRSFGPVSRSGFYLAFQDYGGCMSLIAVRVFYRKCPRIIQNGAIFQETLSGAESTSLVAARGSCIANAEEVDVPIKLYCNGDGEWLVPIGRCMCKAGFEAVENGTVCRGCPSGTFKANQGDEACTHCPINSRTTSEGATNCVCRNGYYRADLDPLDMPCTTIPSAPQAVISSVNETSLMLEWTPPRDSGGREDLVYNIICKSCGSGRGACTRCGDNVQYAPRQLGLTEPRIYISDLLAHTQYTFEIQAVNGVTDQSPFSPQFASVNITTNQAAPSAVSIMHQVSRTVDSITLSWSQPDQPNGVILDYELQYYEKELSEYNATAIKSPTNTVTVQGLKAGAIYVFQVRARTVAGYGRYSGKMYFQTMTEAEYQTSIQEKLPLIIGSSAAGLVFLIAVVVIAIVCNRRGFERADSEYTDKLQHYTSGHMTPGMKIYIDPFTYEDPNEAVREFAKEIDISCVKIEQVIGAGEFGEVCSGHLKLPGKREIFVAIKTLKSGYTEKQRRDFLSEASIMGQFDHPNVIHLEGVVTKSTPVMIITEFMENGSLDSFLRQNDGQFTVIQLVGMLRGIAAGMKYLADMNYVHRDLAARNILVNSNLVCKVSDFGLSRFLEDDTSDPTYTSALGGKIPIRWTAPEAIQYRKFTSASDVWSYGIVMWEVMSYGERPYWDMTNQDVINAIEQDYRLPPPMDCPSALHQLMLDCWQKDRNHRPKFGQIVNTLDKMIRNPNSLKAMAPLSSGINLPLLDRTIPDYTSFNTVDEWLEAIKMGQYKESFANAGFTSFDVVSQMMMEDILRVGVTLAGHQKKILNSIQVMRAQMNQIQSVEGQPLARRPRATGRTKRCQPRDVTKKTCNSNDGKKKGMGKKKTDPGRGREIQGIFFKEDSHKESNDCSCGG

[4] = AUC (0 to infinity) in Sprague-Dawley rat at 2.5 mg/kg, po; type: ADME, organism-based; set-up: time infinity, dose 2.5 mg/kg, route oral; details: plasma
[5] = AUC (0 to time) in Sprague-Dawley rat at 2.5 mg/kg, po; type: ADME, organism-based; set-up: dose 2.5 mg/kg, route oral; details: plasma
[6] = Cmax in Sprague-Dawley rat at 2.5 mg/kg, po; type: ADME, organism-based; set-up: dose 2.5 mg/kg, route oral; details: in vivo
[7] = Tmax in Sprague-Dawley rat at 2.5 mg/kg, po; type: ADME, organism-based; set-up: dose 2.5 mg/kg, route oral; details: in vivo
[8] = species: Homo sapiens; assay: Toxicity in metastatic renal cell carcinoma patient assessed as hypertension; type: organism-based
[9] = species: Homo sapiens; assay: Toxicity in metastatic renal cell carcinoma patient assessed as dysphonia; type: organism-based

half-life [1]	MRT [2]	IC50 [3]	AUC(0-inf) [4]	AUC [5]	Cmax [6]	Tmax [7]	SMILES	Activity [8]	Activity [9]
11.1 h	15.8 h	0.0268 µM	73.9 µg·h/mL	69.7 µg·h/mL	3.98 µg/mL	5 h	[2H]C([2H])([2H])Oc1cc2nccc(Oc3ccc(NC(=O)Nc4cc(C)on4)c(Cl)c3)c2cc1OC([2H])([2H])[2H]		
							CNC(=O)c1cc(Oc2ccc(NC(=O)Nc3ccc(Cl)c(C(F)(F)F)c3)cc2)ccn1 [SORAFENIB]	34%	5%
9.35 h	13.4 h	0.0175 µM	49.1 µg·h/mL	47.5 µg·h/mL	3.06 µg/mL	4.8 h	COc1cc2nccc(Oc3ccc(NC(=O)Nc4cc(C)on4)c(Cl)c3)c2cc1OC [TIVOZANIB]	44%	21%

From ChEMBL document CHEMBL3425418 (Bioorg Med Chem Lett, 2015)
